Measurements published in paper PMC7900799, “Synthesis, antibiotic structure–activity relationships, and cellulose dissolution studies of new room-temperature ionic liquids derived from lignin” (Biotechnology for Biofuels, 2021).
Read-outs that look alike come from different tables or passages of the source. One block for each molecule: values may come before it.

Assays:
[1] = test system: E. coli strain 1A1; experiment: Broth dilution assay (antibiotic assay), growth at 600 nm after 24 h; type: cell-based
Protocol: (§1) To determine if the antibacterial activity of 5 was due to pH effects, an additional broth dilution assay was performed using sodium hydroxide as a positive control.
E. coli strain 1A1 [43] was obtained from the microbial strain repository at the Joint Bioenergy Institute at Lawrence Berkeley National Laboratory. A 10 mL culture in Luria Broth (LB) media was grown for 18 h at 37 °C with shaking at 200 rpm. The culture was then diluted into LB media to an absorbance of 0.05 at 600 nm, and added into the wells of a 96-well plate (first row = 190 µL, all other wells = 100 µL/well). Approximately 700 mg of IL was dissolved into 1 mL of methanol, and 10 µL of each IL solution was added to first row wells of the plate. A twofold serial dilution was performed down the plate by mixing and transferring 100 µL using a multi-channel pipette. To maintain isochoric conditions, 100 µL was discarded from bottommost wells. The plate was then incubated at 37 °C with shaking at 150 rpm. After 24 h incubation, E. coli growth was quantified at 600 nm using an Epoch Microplate Spectrophotometer (Gen5 software). […] All experiments were repeated 3–7 times and error bars in Fig. 5 represent standard deviation. Statistical F-test was performed to determine the appropriate t-test (i.e., equal or unequal variance) to analyze significant difference between IC50 data.

[2] = pH of LB media at the IC50 concentration; type: physicochemical; conditions: at IC50 against E. coli
Protocol: as §1

[3] = test system: Daphnia magna; experiment: 48-h acute toxicity study on D. magna; type: in vivo; conditions: for IC50: Daphnia magna, 48 h, read-out: IC50 against D. magna
Protocol: Procedures for cultivating and performing acute toxicity assays with D. magna generally followed the US EPA protocol. Daphnia magna was cultured from stocks supplied by Aquatic Bio Systems Inc. (Fort Collins, CO). The organisms were cultured in 900-mL jars filled with moderately hard water from the recipe: 0.473 g CaSO4, 0.959 g NaHCO3, 1.223 g MgSO4·7H2O, and 0.039 g KCl per 10 L of deionized water. 2 mL of algae (Selenastrum capriconutum) containing 3.0 × 10^7 cells/mL were fed to D. magna on both Tuesdays and Thursdays with water changes as well as feedings on Saturdays. All glass jars were placed in a Thermo Scientific Precision incubator (Fischer Scientific, Hampton, NH) at a holding temperature of 20 °C and on a 12 h:12 h light:dark cycle. This procedure was conducted approximately a month prior to the beginning of the project. To prepare D. magna for use in acute experiments, three hundred adult daphnids were separated into five 1-L beakers with 60 daphnids each. These daphnids were used a week later in the experiment. All daphnid cultures followed the same protocol for feeding and water changes as mentioned previously.
A 48-h acute toxicity study was carried out to examine the toxic effects of 11 and 12 on D. magna, Glass jars were filled with moderately hard water and spiked with the appropriate concentration of IL from stock solution to a total volume of 50 mL. For each IL, 5 different concentrations were studied. Control jars were set up with only 50 mL of moderately hard water. Four replicates were used for each concentration and each replicate had four daphnids. The daphnids were placed into glass jars for each concentration of ILs. All glass jars were placed in a Thermo Scientific Precision incubator (Fischer Scientific, Hampton, NH) at a holding temperature of 20 °C and on a 12 h:12 h light:dark cycle. Mortality in each jar was recorded every 24 h.

[4] = E. coli strain 1A1, LB media, 24 h, 37 °C, read-out: IC50 (concentration of IL required to decrease bacterial growth by 50%)
[5] = Escherichia coli, 1A1, 24 h, E. coli strain 1A1, LB media, 24 h, 37 °C, read-out: IC50 (concentration of IL required to decrease bacterial growth by 50%)

SMILES: CCCC[N+](CCCC)(CCCC)CCCC [Compound 2, Tetrabutylammonium acetate]
IC50 ([1]; Escherichia coli, 1A1, 24 h, read-out: IC50 (concentration of IL required to decrease bacterial growth by 50%), E. coli strain 1A1, LB media, 24 h, 37 °C): 13.2 ± 2.9 mM

SMILES: CCCC[N+](CCCC)(CCCC)CCCC [Compound 3, tetrabutylammonium bromide, reference compound]
IC50 ([1]; read-out: IC50 (concentration of IL required to decrease bacterial growth by 50%), E. coli strain 1A1, LB media, 24 h, 37 °C): 10 ± 1.3 mM

SMILES: C[N+](C)(C)Cc1ccccc1 [Compound 4, Benzyltrimethylammonium acetate]
IC50 [1, 4]: 47.8 ± 0.6 mM

SMILES: C[N+](C)(C)Cc1ccccc1 [Compound 5, benzyltrimethylammonium hydroxide, reference compound]
IC50 [1, 4]: 10.4 ± 0.3 mM | pH of LB media at the IC50 concentration [2]: 8.5

SMILES: COc1ccc(C[N+](C)(C)C)cc1 [Compound 6]
IC50 [1, 5]: 11.6 ± 1.7 mM

SMILES: COc1cc(C[N+](C)(C)C)cc(OC)c1OC [Compound 7]
IC50 [1, 5]: 22.2 ± 0.8 mM

SMILES: COc1ccc(C[N+](C)(C)C)cc1OC [Compound 8]
IC50 [1, 5]: 48.2 ± 3.3 mM

IC50 [1, 5]: 19.6 ± 0.4 mM
SMILES: CC[N+](C)(CC)Cc1ccc(OC)c(OC)c1 [Compound 9, N-(3,4-Dimethoxybenzyl)-N-ethyl-N-methylethanaminium acetate]

IC50 [1, 5]: 17.7 ± 0.9 mM
SMILES: CCC[N+](C)(CCC)Cc1ccc(OC)c(OC)c1 [Compound 10, N-(3,4-Dimethoxybenzyl)-N-methyl-N-propylpropan-1-ammonium acetate]

SMILES: COc1ccc(C[N+](C)(C)C)cc1OC [Compound 11]
fold reduction of toxicity of the methanesulfonate compared with the acetate anion (8) ([1]; E. coli, vanillin-derived N,N,N-trimethyl cation): 1.6 fold | IC50 ([1]; Escherichia coli, 1A1, 24 h, read-out: IC50 (concentration of IL required to decrease bacterial growth by 50%)): 78.7 ± 2.5 mM | fold by which IC50 against D. magna is lower than IC50 against E. coli ([3]; 0.319 mM vs 78.7 mM): approximately 250 fold | IC50 [3]: 319 ± 66 µM

SMILES: COc1cc(C[N+](C)(C)C)cc(OC)c1OC [Compound 12]
fold more toxic to D. magna than vanillin-derived IL 11 ([3]; 48-h acute toxicity): 2.6 fold | IC50 [3]: 123 ± 12 µM

IC50 [1, 4]: 25.5 mM | pH of LB media at the IC50 concentration [2]: 9.4
SMILES: [Na+].[OH-] [NaOH, sodium hydroxide, reference compound]
